Assay results taken from patent US11351178B2, “Selective HDAC6 inhibitors” (ITALFARMACO S.P.A., priority 2017, dated 2022).
Where two headings read alike, the source gives them in different places.

What was measured:
recombinant human HDAC6 = molecular target: T1, recombinant human HDAC6 (Homo sapiens, UniProt Q9UBN7); experiment: Enzymatic screening on recombinant human HDAC6; format: biochemical; settings: read-out: HDAC6 IC50
T1 sequence (Q9UBN7 1-1215): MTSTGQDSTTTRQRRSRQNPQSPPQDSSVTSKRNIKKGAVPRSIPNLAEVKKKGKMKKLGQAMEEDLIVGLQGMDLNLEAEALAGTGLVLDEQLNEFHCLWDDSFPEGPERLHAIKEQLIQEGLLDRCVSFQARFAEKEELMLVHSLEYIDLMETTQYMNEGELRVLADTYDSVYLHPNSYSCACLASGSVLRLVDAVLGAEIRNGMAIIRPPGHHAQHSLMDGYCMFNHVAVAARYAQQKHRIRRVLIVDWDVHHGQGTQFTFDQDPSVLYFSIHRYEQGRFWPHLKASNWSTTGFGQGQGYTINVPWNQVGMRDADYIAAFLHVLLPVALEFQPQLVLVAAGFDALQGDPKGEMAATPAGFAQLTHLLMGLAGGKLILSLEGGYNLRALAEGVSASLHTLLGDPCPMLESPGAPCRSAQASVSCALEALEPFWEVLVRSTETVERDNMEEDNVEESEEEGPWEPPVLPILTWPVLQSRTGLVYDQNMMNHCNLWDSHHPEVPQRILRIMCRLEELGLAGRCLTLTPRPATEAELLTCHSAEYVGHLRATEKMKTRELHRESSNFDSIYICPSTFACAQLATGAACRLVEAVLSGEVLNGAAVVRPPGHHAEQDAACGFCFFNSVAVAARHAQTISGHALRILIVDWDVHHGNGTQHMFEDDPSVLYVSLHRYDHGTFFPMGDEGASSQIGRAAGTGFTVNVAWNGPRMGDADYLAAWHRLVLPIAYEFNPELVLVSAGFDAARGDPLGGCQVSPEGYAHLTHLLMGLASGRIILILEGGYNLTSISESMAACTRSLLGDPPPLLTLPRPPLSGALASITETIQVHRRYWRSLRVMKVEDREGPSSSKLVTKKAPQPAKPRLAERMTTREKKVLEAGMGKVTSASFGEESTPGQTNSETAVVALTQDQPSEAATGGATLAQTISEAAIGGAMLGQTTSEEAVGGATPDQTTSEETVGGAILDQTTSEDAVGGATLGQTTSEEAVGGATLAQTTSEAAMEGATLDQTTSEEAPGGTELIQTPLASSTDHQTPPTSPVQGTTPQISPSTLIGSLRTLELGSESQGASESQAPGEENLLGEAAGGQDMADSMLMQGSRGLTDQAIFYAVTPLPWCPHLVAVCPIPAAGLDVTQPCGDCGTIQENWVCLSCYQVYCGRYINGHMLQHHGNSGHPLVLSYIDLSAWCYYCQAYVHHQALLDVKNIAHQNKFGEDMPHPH
How it was run: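 Deacetylase activity of recombinant human isoforms is measured with FLUOR DE LYS, FLUOR DE LYS-Green or trifluoroacetyl-L-lysine substrates, supplied at 2× in 25 mM Tris-HCl, pH 8, 130 mM NaCl, 0.05% Tween-20, 10% glycerol. Both the enzyme-compound preincubation, of isoform-specific length, and the substrate reaction run at 30 °C.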

recombinant human HDAC3 = molecular target: T2, recombinant human HDAC3 (Homo sapiens, UniProt O15379); experiment: Enzymatic screening on recombinant human HDAC3; format: biochemical; settings: Table 3
T2 construct: purchased BPS 50003
T2 sequence (O15379 whole entry): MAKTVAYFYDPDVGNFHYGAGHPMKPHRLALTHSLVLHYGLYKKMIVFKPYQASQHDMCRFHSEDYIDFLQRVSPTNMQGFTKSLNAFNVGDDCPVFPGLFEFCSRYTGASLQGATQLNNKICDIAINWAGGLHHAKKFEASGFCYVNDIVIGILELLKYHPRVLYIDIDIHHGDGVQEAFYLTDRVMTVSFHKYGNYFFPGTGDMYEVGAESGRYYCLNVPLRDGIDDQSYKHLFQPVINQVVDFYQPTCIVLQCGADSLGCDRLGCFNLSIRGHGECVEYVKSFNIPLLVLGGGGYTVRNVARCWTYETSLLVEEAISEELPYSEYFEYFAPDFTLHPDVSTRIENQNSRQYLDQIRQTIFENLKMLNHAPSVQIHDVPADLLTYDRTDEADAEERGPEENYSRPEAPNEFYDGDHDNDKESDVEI
T2 sequence (Q9Y618 395-489 partner limits assumed): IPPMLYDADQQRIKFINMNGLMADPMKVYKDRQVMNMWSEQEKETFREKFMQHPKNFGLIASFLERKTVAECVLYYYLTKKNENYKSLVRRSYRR
Experimental: Enzymatic activity on recombinant human HDAC6 and HDAC3 was evaluated (Table 2) for each synthesized compound.
(§1) After a period of incubation at 30° C. (incubation times vary for different isoforms and are shown in table 1) 25 μL of solution containing the substrate were added. As substrate, FLUOR DE LYS® deacetylase substrate (Enzo Life Sciences, cat #BML-K1104, FdL), FLUOR DE LYS®-Green substrate (Enzo Life Sciences, cat #BML-K1572 FdL_G) and trifluoroacetyl-L-lysine (Tfal)-2× concentrated solution in 25 mM Tris-HCl, pH 8, 130 mM NaCl 0.05% Tween-20 10% glycerol) were used. Following a reaction period at 30° C.

HDAC1 = molecular target: T3, HDAC1 (Homo sapiens, UniProt Q13547); experiment: Enzymatic test HDAC1; format: biochemical; settings: Table 3
T3 construct: purchased BPS 50051
T3 sequence (Q13547 whole entry): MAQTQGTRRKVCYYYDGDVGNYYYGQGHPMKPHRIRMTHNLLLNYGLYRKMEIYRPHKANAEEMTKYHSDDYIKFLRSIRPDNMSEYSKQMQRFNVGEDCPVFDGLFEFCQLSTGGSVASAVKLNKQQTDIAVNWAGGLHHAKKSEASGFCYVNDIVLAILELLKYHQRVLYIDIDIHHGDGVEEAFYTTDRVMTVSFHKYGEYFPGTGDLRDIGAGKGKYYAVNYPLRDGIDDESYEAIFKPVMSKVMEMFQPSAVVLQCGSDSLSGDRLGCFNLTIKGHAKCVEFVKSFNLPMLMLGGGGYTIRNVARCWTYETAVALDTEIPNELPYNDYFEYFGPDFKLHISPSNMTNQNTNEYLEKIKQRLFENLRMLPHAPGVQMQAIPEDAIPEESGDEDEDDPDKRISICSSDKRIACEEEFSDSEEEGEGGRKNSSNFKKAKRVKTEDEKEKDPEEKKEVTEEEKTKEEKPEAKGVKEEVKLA

HDAC11 = molecular target: T4, HDAC11 (Homo sapiens, UniProt Q96DB2); experiment: Enzymatic test HDAC11; format: biochemical; settings: Table 3
T4 construct: purchased BML SE560
T4 sequence (Q96DB2 1-347): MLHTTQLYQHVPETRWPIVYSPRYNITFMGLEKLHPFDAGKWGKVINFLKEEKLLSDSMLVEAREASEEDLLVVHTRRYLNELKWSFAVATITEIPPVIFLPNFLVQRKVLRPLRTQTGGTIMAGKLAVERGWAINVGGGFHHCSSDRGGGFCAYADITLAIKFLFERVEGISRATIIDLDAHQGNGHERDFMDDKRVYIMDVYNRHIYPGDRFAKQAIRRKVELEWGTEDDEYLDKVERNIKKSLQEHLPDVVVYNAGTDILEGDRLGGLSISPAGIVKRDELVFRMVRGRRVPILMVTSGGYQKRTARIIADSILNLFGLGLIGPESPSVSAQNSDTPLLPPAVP
Experimental: as §1

[1] = system: peripheral blood mononuclear cells (PBMCs); experiment: Cytotoxicity on PBMCs (CellTiter 96); format: cell-based; settings: PBMC, 72 h; read-out: PBMC TOXICITY (72 h)
How it was run: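 Mitochondrial-function readout (CellTiter 96 Aqueous One) after 72 h compound exposure, begun 24 h post-seeding. Dose ranges: 697 cells, 1 to 10000 nM at 2×10^4 cells/well; PBMCs, 1.5 to 10000 nM at 5×10^5 cells/well.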

[2] = Stability to Phase I metabolism in rat S9 liver fraction; format: in vitro ADME; settings: after 90 min, 37° C.
How it was run: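 Phase I stability in human and rat hepatic S9 at 37 °C, sampled up to 90 min. Samples were stopped with acidified acetonitrile on ice, then quantified by HPLC-UV or LC-MS/MS.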

Stability in rat plasma = format: in vitro ADME; settings: after 4 hours, 37° C.
How it was run: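 Compounds incubated at 37° C in rat or human plasma at 50 μM (UV/HPLC) or 1 or 2 μM (LC-MS/MS) for 0–4 h. Reaction stopped with acidified acetonitrile on ice; percent remaining versus initial amount and plasma half-life calculated.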

IC50 (recombinant human HDAC6; Table 2)	IC50 (recombinant human HDAC6; Table 3)	IC50 (recombinant human HDAC3)	IC50 (HDAC1)	IC50 (HDAC11)	residual percentage in rat S9 fraction [2]	residual percentage in rat plasma (Stability in rat plasma)	SMILES	IC50 [1]
17 nM	17 nM	1150 nM	581 nM	1440 nM	40%		CN(C)c1cccc(-c2nnc(Sc3ccc(C(=O)NO)cc3)n2C)c1 [comp. 77, 4-[[5-[3-(dimethylamino)phenyl]-4-methyl-1,2,4-triazol-3-yl]sulfanyl]benzenecarbohydroxamic acid]	2000 nM
8 nM	8 nM	1650 nM	2320 nM	659 nM	73%	99%	O=C(NO)c1cc(F)c(Cn2nnc(-c3scc4c3OCCO4)n2)c(F)c1 [comp. 79, 4-[[5-(2,3-dihydrothieno[3,4-b][1,4]dioxin-5-yl)tetrazol-2-yl]methyl]-3,5-difluoro-benzenecarbohydroxamic acid]	3000 nM
81 nM	81 nM	2870 nM	1930 nM	2680 nM	70%	86%	COc1ccc(C(=O)N[C@@H](Cc2cscn2)c2nc(Cc3ccc(C(=O)NO)cc3)no2)cc1OC [comp. 1, (S)—N-(1-(3-(4-(hydroxycarbamoyl)benzyl)-1,2,4-oxadiazol-5-yl)-2-(thiazol-4-yl)ethyl)-3,4-dimethoxybenzamide]	7000 nM
16 nM	16 nM	8650 nM	11600 nM	8050 nM	1%	79%	Cn1c(Sc2c(F)cc(C(=O)NO)cc2F)nnc1-c1cccc2ccccc12 [comp. 2, 3,5-difluoro-N-hydroxy-4-((4-methyl-5-(naphthalen-1-yl)-4H-1,2,4-triazol-3-yl)thio)benzamide]	> 1000 nM
5 nM	5 nM	339 nM	469 nM	557 nM	75%	76%	Cc1cc(-c2nnc(Sc3ccc(C(=O)NO)cc3)n2C)nn1C [comp. 85, 4-[[5-(1,5-dimethylpyrazol-3-yl)-4-methyl-1,2,4-triazol-3-yl]sulfanyl]benzenecarbohydroxamic acid]	2000 nM
6 nM	6 nM	921 nM	747 nM	1010 nM	54%	66%	CCN(CC)S(=O)(=O)c1cccc(-c2nnc(Sc3ccc(C(=O)NO)cc3)n2C)c1 [comp. 66, 4-[[5-[3-(diethylsulfamoyl)phenyl]-4-methyl-1,2,4-triazol-3-yl]sulfanyl]benzenecarbohydroxamic acid]	
9 nM	9 nM	488 nM	495 nM	904 nM	49%	71%	CCN(CC)S(=O)(=O)c1cccc(-c2nnc(Sc3ccc(C(=O)NO)cc3)n2N)c1 [comp. 61, 4-[[4-amino-5-[3-(diethylsulfamoyl)phenyl]-1,2,4-triazol-3-yl]sulfanyl]benzenecarbohydroxamic acid]	
6 nM	6 nM	206 nM	364 nM	282 nM	15%	106%	O=C(NO)c1ccc(Cc2nnc(-c3ccc(F)cc3F)o2)cc1 [comp. 58, 4-((5-(2,4-difluorophenyl)-1,3,4-oxadiazol-2-yl)methyl)-N-hydroxybenzamide]	
7 nM	7 nM	448 nM	353 nM	515 nM	8%	53%	CN(C)S(=O)(=O)c1cccc(-c2nnn(Cc3ccc(C(=O)NO)cc3)n2)c1 [comp. 59, 4-[[5-[3-(dimethylsulfamoyl)phenyl]tetrazol-2-yl]methyl]benzenecarbohydroxamic acid]	

SMILES	IC50 (recombinant human HDAC6; Table 2)	IC50 (recombinant human HDAC6; Table 3)	IC50 (recombinant human HDAC3)	IC50 (HDAC1)	IC50 (HDAC11)	residual percentage in rat S9 fraction [2]	residual percentage in rat plasma (Stability in rat plasma)	IC50 [1]
O=C(NO)c1cc(F)c(Cn2nnc(-c3ccco3)n2)c(F)c1 [comp. 19, 3,5-difluoro-4-((5-(furan-2-yl)-2H-tetrazol-2-yl)methyl)-N-hydroxybenzamide]	4 nM	4 nM	2640 nM	2520 nM	798 nM	68%	96%	> 10000 nM
O=C(NO)c1cc(F)c(Cn2nnnc2-c2cccs2)c(F)c1 [comp. 15, 3,5-difluoro-N-hydroxy-4-((5-(thiophen-2-yl)-1H-tetrazol-1-yl)methyl)benzamide]	19 nM	19 nM	6290 nM	7090 nM	4590 nM	60%	78%	> 10000 nM
Cn1c(Sc2ccc(C(=O)NO)cc2)nnc1-c1cccs1 [comp. 10, N-hydroxy-4-((4-methyl-5-(thiophen-2-yl)-4H-1,2,4-triazol-3-yl)thio)benzamide]	8 nM	9 nM	487 nM	1020 nM	981 nM	82%	86%	4500 nM
O=C(NO)c1cc(F)c(Cn2nnc(-c3ccccn3)n2)c(F)c1 [comp. 6, 3,5-difluoro-N-hydroxy-4-((5-(pyridin-2-yl)-2H-tetrazol-2-yl)methyl)benzamide]	7 nM	7 nM	7260 nM	7510 nM	5170 nM	96.6%	87%	20000 nM
